Where two headings read alike, the source gives them in different places.
Experiments:
Experiment in all cases: SelectScreen Kinase Profiling, single point inhibition and IC50 for off-target kinases
Format in all cases: biochemical
off-target kinases [1] = biological target: off-target kinases (Homo sapiens, UniProt P05129); details: PRKCG (PKC gamma); Cmpd1 1000 μM; ATP Km app; ZLYTE
off-target kinases [2] = biological target: off-target kinases (Homo sapiens, UniProt Q16512); details: PKN1 (PRK1); Cmpd1 1000 μM; ATP Km app; ZLYTE
Sequence of off-target kinases (Homo sapiens, UniProt Q16512) (Q16512 whole entry): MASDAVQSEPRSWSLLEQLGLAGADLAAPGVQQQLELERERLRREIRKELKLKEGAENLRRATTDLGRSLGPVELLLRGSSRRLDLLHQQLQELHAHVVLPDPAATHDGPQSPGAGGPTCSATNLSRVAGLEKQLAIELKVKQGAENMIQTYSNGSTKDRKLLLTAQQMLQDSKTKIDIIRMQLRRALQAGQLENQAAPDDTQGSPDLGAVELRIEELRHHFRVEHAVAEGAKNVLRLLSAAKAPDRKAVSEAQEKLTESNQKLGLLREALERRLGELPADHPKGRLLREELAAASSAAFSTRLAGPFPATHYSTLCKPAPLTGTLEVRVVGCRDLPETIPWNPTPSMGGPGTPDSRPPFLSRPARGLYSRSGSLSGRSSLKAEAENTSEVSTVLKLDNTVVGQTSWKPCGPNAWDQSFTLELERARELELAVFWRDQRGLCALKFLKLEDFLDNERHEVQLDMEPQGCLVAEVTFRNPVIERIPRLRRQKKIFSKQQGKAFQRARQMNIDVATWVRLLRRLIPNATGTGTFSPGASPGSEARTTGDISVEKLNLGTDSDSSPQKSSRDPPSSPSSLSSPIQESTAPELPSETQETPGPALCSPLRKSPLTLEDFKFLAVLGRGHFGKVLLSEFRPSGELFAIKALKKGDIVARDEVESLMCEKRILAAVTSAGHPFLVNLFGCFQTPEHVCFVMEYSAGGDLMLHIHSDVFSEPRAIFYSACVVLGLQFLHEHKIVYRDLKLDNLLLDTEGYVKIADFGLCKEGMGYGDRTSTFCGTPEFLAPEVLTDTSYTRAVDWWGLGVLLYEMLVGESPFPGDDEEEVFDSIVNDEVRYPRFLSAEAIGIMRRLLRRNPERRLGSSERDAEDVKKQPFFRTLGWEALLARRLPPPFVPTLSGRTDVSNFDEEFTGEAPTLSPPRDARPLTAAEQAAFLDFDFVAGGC

off-target kinases [3] = biological target: off-target kinases (Homo sapiens, UniProt P00533, L861Q); details: EGFR (ErbB1) L861Q (mutant), ZLYTE, ATP Km app
Sequence of off-target kinases (Homo sapiens, UniProt P00533, L861Q) (P00533 25-1210 L861Q): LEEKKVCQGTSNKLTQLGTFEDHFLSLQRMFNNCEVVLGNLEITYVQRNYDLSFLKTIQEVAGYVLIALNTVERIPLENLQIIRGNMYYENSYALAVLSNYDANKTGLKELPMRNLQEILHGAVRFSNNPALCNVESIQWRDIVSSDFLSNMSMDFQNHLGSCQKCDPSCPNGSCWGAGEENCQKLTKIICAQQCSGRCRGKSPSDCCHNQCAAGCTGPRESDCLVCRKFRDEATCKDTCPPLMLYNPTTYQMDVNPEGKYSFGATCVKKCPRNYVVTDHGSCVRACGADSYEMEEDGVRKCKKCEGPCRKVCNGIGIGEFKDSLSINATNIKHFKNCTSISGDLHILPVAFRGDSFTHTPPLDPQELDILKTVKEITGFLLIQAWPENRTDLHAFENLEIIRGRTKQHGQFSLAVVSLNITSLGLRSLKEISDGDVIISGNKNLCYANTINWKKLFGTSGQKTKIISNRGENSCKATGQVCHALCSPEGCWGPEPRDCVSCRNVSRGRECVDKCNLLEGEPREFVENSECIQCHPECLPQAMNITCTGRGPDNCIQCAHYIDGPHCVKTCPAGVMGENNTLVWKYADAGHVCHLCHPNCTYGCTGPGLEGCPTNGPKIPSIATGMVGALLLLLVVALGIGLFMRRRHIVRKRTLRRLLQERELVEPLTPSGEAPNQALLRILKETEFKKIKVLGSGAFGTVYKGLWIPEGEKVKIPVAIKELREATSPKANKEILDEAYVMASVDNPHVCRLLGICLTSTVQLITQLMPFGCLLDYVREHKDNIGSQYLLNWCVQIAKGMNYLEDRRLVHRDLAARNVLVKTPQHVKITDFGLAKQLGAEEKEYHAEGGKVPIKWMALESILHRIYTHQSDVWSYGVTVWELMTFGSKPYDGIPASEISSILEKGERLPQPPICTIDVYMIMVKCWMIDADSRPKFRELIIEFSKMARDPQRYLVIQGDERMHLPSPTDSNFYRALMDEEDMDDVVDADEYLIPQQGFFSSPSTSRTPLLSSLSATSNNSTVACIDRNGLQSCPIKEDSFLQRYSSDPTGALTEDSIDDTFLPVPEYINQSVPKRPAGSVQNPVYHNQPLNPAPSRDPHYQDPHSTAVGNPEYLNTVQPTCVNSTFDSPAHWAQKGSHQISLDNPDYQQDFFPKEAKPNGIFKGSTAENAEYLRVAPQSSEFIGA

off-target kinases [4] = biological target: T1, off-target kinases (Homo sapiens, UniProt Q7L7X3); details: TAOK1, LanthaScreen Binding
T1 sequence (Q7L7X3 1-1001): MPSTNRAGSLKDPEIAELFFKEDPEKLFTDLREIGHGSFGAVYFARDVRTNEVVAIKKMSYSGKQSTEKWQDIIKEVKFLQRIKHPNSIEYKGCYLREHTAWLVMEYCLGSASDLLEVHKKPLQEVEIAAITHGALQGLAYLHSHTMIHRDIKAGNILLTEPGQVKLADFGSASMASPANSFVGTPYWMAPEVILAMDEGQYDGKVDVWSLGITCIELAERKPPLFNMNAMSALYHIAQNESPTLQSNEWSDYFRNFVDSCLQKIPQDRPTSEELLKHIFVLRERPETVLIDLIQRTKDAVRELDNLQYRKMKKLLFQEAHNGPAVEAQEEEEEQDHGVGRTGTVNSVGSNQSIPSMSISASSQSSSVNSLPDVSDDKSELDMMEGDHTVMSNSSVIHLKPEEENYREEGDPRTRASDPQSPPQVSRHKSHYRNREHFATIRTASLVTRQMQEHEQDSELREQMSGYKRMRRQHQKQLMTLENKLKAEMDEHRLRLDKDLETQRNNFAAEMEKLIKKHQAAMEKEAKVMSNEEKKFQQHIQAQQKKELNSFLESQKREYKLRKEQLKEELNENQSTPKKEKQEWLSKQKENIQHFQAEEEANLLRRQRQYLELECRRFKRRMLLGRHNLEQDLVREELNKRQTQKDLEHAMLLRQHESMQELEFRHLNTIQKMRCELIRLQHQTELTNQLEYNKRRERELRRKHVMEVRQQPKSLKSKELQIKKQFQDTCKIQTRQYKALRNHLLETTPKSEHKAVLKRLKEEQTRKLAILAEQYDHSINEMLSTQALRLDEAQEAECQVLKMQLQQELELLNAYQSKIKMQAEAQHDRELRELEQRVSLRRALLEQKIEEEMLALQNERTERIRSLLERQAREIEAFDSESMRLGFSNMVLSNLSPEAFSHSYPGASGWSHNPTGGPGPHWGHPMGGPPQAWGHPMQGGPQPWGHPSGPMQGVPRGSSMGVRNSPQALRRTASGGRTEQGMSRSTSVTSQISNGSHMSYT

off-target kinases [5] = biological target: off-target kinases (Homo sapiens, UniProt O00418)
Sequence of off-target kinases (Homo sapiens, UniProt O00418) (O00418 whole entry): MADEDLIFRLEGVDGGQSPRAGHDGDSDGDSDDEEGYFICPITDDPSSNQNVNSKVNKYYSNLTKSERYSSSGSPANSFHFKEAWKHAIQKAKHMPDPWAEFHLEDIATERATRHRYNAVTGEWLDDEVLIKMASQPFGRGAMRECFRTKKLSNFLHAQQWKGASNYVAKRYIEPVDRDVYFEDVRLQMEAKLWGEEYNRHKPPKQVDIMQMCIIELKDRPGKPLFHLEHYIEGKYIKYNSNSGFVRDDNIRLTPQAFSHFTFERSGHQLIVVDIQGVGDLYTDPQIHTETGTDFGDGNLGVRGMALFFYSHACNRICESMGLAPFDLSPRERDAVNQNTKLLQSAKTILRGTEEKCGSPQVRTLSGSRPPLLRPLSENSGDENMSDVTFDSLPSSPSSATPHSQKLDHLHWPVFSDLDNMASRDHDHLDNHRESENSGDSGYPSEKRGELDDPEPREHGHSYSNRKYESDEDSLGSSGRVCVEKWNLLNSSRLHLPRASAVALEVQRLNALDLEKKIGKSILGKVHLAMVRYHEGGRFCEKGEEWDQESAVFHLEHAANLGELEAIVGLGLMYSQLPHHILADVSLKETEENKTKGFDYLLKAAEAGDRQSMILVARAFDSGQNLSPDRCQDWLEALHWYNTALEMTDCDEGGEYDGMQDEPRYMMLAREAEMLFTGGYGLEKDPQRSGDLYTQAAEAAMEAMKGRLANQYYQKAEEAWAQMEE

off-target kinases [6] = biological target: off-target kinases (Homo sapiens, UniProt O75116); details: ROCK2, ZLYTE, ATP Km app
Sequence of off-target kinases (Homo sapiens, UniProt O75116) (O75116 whole entry): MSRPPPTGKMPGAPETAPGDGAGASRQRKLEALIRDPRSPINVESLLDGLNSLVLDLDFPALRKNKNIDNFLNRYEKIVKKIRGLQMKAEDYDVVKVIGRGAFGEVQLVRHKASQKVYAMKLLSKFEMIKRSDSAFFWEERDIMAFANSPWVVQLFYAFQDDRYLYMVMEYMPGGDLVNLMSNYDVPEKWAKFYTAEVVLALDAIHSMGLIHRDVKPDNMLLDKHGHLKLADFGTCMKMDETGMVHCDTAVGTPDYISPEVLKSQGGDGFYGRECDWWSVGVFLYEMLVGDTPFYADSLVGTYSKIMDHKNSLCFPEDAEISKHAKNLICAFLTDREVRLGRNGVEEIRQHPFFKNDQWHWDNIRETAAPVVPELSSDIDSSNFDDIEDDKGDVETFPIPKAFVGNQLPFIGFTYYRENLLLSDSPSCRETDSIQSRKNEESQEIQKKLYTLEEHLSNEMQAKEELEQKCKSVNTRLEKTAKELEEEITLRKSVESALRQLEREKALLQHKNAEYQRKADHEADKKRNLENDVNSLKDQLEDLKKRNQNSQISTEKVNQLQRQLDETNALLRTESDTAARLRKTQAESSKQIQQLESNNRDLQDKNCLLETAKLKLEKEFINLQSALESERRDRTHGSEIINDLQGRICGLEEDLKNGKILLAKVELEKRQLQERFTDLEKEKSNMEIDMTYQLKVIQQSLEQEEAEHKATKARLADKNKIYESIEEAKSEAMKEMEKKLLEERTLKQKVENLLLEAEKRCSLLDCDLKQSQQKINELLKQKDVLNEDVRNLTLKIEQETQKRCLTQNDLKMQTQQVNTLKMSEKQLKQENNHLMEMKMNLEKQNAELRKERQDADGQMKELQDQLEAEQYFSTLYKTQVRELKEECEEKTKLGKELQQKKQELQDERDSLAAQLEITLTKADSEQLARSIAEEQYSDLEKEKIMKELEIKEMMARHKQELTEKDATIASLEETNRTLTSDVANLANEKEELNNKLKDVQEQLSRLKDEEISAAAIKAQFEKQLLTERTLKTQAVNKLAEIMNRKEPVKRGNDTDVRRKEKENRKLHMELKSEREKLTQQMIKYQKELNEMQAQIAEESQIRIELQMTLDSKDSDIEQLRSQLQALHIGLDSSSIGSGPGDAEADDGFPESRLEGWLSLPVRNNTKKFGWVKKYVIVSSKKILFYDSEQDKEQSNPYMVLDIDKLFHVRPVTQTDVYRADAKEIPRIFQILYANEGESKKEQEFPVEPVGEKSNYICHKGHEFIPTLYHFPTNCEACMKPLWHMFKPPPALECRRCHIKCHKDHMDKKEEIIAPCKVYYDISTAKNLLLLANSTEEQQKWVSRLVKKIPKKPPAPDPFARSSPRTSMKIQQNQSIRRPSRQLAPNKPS

## N#Cc1cc(-c2ncnc(Nc3ccc(N4CCN(C5COC5)CC4)cc3)n2)ccc1OC1CCOCC1 [Compound 1, 5-(4-((4-(4-(oxetan-3-yl)piperazin-1-yl)phenyl)amino)-1,3,5-triazin-2-yl)-2-((tetrahydro-2H-pyran-4-yl)oxy)benzonitrile]
off-target kinases [1]
  % Inhibition 1: −9%
  % Inhibition 2: −1%
  % Inhibition Avg: −5%
off-target kinases [2]
  % Inhibition 1: −6%
  % Inhibition 2: −4%
  % Inhibition Avg: −5%
off-target kinases [3]; read-out: % Inhibition 1
  inhibition: 6%
off-target kinases [3]; read-out: % Inhibition 2
  inhibition: 5%
off-target kinases [3]; read-out: % Inhibition Avg
  inhibition: 5%
off-target kinases [4]; read-out: % Inhibition 1
  inhibition: 45%
off-target kinases [4]; read-out: % Inhibition 2
  inhibition: 43%
off-target kinases [4]; read-out: % Inhibition Avg
  inhibition: 44%
off-target kinases [5]; read-out: % Inhibition 1
  inhibition: -1%
off-target kinases [5]; read-out: % Inhibition 2
  inhibition: 0%
off-target kinases [5]; read-out: % Inhibition Avg
  inhibition: -1%
off-target kinases [6]; read-out: % Inhibition 1
  inhibition: 12%
off-target kinases [6]; read-out: % Inhibition 2
  inhibition: 14%
off-target kinases [6]; read-out: % Inhibition Avg
  inhibition: 13%

Reference: patent publication US11572590B2, “Methods for evaluating tumor cell spheroids using 3D microfluidic cell culture device” (Dana-Farber Cancer Institute, Inc., priority 2017, dated 2023)
